Laboratory results as given in PMC6738096 (British Journal of Cancer, 2019).

Experiments:
[1] = biological target: T1, hNav1.5 (Homo sapiens, UniProt Q14524); test: hNav1.5 expressed in HEK-293 cells; format: cell-based; conditions: read-out: IC50 against hNav1.5
T1 construct: expressed in transfected cells; host or cells: HEK-293

[2] = test system: ALK-positive tumours; test: Phase 1 trial: clinical activity, tumour response by RECIST 1.1; format: in vivo, human; conditions: for Best overall response: Complete response / Best overall response: Progressive disease / Best overall response: Stable disease / Objective response: Complete response + partial response / Best overall response: Partial response: ALK-positive NSCLC, 40 mg every 8 hours; for Best overall response: Partial response: confirmed and unconfirmed
Method: The overall tumour response in all patients with measurable disease was evaluated, using Response Evaluation Criteria in Solid Tumors, version 1.1,[16] completed at times of radiologic assessment at weeks 4 and 8 after dosing and every 8 weeks thereafter. For patients without measurable disease at study entry, radiologic assessment was done as per investigator discretion.
While tumour response data were collected from 66 patients, here, we present response data only for patients with ALK-positive tumour samples (n = 22) receiving the RP2D (40 mg Q8h).

[3] = Telemetered dog cardiovascular study; format: in vivo
Method: Potential in vivo effects on the respiratory, central nervous and cardiovascular systems were evaluated in oral dose studies in rats and dogs.

[4] = Plasma exposure in mice of the Karpas-299 study
[5] = Prior ALK inhibitor-treated (n = 8)
[6] = ALK-positive patients (n = 22), 40 mg Q8h
[7] = previously treated with an ALK inhibitor, RP2D

T1 sequence (Q14524 whole entry): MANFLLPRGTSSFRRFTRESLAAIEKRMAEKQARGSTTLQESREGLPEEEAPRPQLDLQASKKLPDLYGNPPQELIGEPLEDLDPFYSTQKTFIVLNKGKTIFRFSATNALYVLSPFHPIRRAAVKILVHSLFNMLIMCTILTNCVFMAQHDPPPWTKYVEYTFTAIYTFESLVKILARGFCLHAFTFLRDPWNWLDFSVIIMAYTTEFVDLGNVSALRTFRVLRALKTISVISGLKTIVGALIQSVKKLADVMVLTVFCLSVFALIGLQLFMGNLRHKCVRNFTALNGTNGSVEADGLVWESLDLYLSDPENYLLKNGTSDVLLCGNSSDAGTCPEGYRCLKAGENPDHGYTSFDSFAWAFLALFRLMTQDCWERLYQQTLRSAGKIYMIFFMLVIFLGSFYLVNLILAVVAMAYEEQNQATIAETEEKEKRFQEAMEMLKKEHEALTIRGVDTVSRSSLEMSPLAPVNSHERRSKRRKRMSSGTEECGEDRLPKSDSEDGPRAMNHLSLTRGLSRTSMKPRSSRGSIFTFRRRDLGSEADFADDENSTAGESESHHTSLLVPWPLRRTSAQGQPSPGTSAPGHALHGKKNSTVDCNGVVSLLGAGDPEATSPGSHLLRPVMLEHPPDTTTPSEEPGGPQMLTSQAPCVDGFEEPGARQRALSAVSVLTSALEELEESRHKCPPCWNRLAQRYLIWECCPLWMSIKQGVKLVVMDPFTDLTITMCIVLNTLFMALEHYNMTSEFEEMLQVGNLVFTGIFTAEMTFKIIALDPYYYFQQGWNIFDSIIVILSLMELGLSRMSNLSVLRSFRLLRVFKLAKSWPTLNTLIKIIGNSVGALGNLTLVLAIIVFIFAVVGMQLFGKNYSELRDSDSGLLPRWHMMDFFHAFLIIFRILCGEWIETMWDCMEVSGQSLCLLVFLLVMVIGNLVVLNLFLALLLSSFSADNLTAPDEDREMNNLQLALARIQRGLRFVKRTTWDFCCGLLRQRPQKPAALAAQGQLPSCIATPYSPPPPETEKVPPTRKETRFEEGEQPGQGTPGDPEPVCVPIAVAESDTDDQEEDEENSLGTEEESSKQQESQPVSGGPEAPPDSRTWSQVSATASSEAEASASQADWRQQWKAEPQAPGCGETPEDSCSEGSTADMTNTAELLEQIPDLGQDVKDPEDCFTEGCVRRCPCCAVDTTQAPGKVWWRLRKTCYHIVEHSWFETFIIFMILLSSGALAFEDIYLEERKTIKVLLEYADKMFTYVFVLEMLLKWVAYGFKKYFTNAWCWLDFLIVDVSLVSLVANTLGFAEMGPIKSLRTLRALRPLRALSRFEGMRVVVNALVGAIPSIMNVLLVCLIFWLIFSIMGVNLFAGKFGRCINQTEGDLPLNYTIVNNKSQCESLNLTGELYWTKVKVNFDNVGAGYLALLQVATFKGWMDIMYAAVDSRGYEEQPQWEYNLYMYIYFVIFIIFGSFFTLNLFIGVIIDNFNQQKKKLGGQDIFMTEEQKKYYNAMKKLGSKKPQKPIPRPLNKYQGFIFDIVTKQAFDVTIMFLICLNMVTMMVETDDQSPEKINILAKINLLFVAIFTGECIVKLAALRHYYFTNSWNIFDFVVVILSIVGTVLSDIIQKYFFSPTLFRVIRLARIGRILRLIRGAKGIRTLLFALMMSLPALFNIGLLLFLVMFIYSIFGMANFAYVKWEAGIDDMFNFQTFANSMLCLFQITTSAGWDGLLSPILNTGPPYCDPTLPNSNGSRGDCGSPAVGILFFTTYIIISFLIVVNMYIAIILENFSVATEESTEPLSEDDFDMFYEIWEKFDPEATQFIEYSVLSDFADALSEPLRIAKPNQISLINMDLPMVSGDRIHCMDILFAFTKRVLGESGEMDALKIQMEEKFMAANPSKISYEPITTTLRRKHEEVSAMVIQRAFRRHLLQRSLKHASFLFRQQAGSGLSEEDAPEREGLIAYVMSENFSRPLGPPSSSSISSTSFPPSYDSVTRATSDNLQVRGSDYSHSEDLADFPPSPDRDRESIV

## CC(C)NC(=O)[C@H]1CC[C@@H](n2c(NC(=O)c3ccc(F)cc3)nc3ccc(CN4CCC(C(C)(C)O)CC4)cc32)CC1 [TSR-011]
[1]
  IC50: 7.6 µM
[2]; ALK inhibitor-naive, RP2D
  Partial response rate: 42.9%
  Stable disease, patients: 57.1%
[2]; ALK pre-treated setting, RP2D
  Objective response rate: 12.5%
[2]; ALK inhibitor-naïve (n = 14)
  Best overall response: Complete response: 0 n (%)
  Best overall response: Progressive disease: 0 n (%)
  Best overall response: Stable disease: 8 (57.1) n (%)
  Objective response: Complete response + partial response: 6 (42.9) n (%)
  Best overall response: Partial response: 6 (42.9) n (%)
[2]; All patients (N = 22)
  Best overall response: Complete response: 0 n (%)
  Best overall response: Progressive disease: 1 (4.5) n (%)
  Best overall response: Stable disease: 14 (63.6) n (%)
  Objective response: Complete response + partial response: 7 (31.8) n (%)
  Best overall response: Partial response: 7 (31.8) n (%)
[2]; [5]
  Best overall response: Complete response: 0 n (%)
  Best overall response: Progressive disease: 1 (12.5) n (%)
  Best overall response: Stable disease: 6 (75.0) n (%)
  Objective response: Complete response + partial response: 1 (12.5) n (%)
  Best overall response: Partial response: 1 (12.5) n (%)
[2]; [6]
  Complete response: No ALK-positive patient had a complete response
  Stable disease, number of patients: 14
[2]; ALK-positive patients (n = 22), 40 mg Q8h, six confirmed, one unconfirmed
  Partial response, number of patients: seven
[2]; one patient
  Response of a patient with neuroblastoma harbouring ALK mutation (R1275Q): did not respond
[2]; [7]
  Partial response rate: 12.5%
  Stable disease, patients: 75.0%
[3]; oral 3, 10 and 15 mg/kg
  Reversibility of cardiovascular parameters: returned to normal by the subsequent dose
[3]; oral doses of 3, 10 and 15 mg/kg
  PR interval: dose-dependent prolongation of the PR interval
[3]; oral, at 15 mg/kg
  Body temperature: mild and transient increase in body temperature
[3]; oral, at 10 and 15 mg/kg
  QRS duration: small and dose-dependent increase in QRS duration
[3]; oral, at ≥ 3 mg/kg
  Heart rate: Increased heart rate
  QTc: prolonged QTc
[3]; oral, at ≥ 10 mg/kg
  Pulse pressure: decreased pulse pressure
[4]; oral daily dosing of 60 mg/kg
  Overall 24-h exposure: 15,500 ng×h/mL
[4]; oral dose 60 mg/kg, at 8 h
  Plasma concentration: 698.00 nM
